{"source": "patent US7112590B2", "about": "“Thrombin inhibitors” (LEK Pharmaceuticals d.d., priority 2000, dated 2006)"}
{"units": {"melting point": "°C"}}
{"smiles": "CC(C)(C)OC(=O)N[C@H](Cc1ccccc1)C(=O)N1CCC[C@H]1C(=O)NC1CCc2n[nH]cc2C1", "note": "(stereo partly drawn) [Example 10, tert-Butyl (1R)-1-benzyl-2-oxo-2-{(2S)-2-[(4,5,6,7-tetrahydro-2H-indazol-5-ylamino)carbonyl]pyrrolidinyl}ethylcarbamate]", "melting point": "108 to 110"}
{"smiles": "O=C(NC1CCc2n[nH]cc2C1)[C@@H]1CCCN1C(=O)[C@@H](CC1CCCCC1)NS(=O)(=O)Cc1ccccc1", "note": "(stereo partly drawn) [Example 22, (2S)-1-{(2R)-2-[(Benzylsulfonyl)amino]-3-cyclohexylpropanoyl}-N-(4,5,6,7-tetrahydro-2H-indazol-5-yl)-2-pyrrolidinecarboxamide]", "melting point": "106 to 109"}
{"smiles": "CC(C)(C)OC(=O)N[C@H](C(=O)N1CCC[C@H]1C(=O)NC1CCc2n[nH]cc2C1)C(c1ccccc1)c1ccccc1", "note": "(stereo partly drawn) [Example 15, tert-Butyl (1S)-1-benzhydryl-2-oxo-2-{(2S)-2-[(4,5,6,7-tetrahydro-2H-indazol-5-ylamino)carbonyl]pyrrolidinyl}ethylcarbamate]", "melting point": "127 to 130"}
{"smiles": "CC(C)(C)OC(=O)N[C@H](Cc1ccccc1)C(=O)N1CCC[C@H]1C(=O)NC1CCc2nc(N)ncc2C1", "note": "(stereo partly shown) [Example 7]", "melting point": "110 to 113"}
{"smiles": "CC(C)(C)OC(=O)N[C@@H](C(=O)N1CCC[C@H]1C(=O)NC1CCc2n[nH]cc2C1)C(c1ccccc1)c1ccccc1", "note": "(stereo partly drawn) [Example 55, tert-Butyl (1R)-1-benzhydryl-2-oxo-2-{(2S)-2-[(4,5,6,7-tetrahydro-2H-indazol-5-ylamino)carbonyl]pyrrolidinyl}ethylcarbamate]", "melting point": "119 to 122"}
{"smiles": "Cl.Cl.Nc1nc2c(s1)CC(NC(=O)[C@@H]1CCCN1C(=O)[C@@H](N)C(c1ccccc1)c1ccccc1)CC2", "note": "(stereo partly shown)", "melting point": "155 to 158"}
{"smiles": "Cl.Cl.O=C(O)CN[C@H](CC1CCCCC1)C(=O)N1CCC[C@H]1C(=O)NCC1CCc2n[nH]cc2C1", "note": "(stereo partly shown)", "melting point": "144 to 147"}
{"smiles": "Cl.Cl.N[C@H](Cc1ccccc1)C(=O)N1CCC[C@H]1C(=O)NC1CCc2n[nH]cc2C1", "note": "(stereo partly shown)", "melting point": "203 to 206"}
{"smiles": "O=C(NC1CCc2n[nH]cc2C1)[C@@H]1CCCN1C(=O)[C@@H](Cc1ccccc1)NS(=O)(=O)Cc1ccccc1", "note": "(stereo partly drawn) [Example 9, (2S)-1-{(2R)-2-[(Benzylsulfonyl)amino]-3-phenylpropanoyl}-N-(4,5,6,7-tetrahydro-2H-indazol-5-yl)-2-pyrrolidinecarboxamide]", "melting point": "114 to 116"}
{"smiles": "C[C@H](NC(=O)[C@@H](Cc1ccccc1)NS(=O)(=O)Cc1ccccc1)C(=O)NC1CCc2nc(N)sc2C1", "note": "(stereo partly drawn) [Example 32, (2R)-N-{(1S)-2-[(2-Amino-4,5,6,7-tetrahydro-1,3-benzothiazol-6-yl)amino]-1-methyl-2-oxoethyl}-2-[(benzylsulfonyl)amino]-3-phenylpropanamide]", "melting point": "122 to 125"}
{"smiles": "CC(C)(C)OC(=O)N[C@H](C(=O)N1CCC[C@H]1C(=O)NC1CCc2nc(N)sc2C1)C(c1ccccc1)c1ccccc1", "note": "(stereo partly drawn) [Example 35, tert-Butyl (1S)-2-((2S)-2-{[(2-amino-4,5,6,7-tetrahydro-1,3-benzothiazol-6-yl)amino]carbonyl}pyrrolidinyl)-1-benzhydryl-2-oxoethylcarbamate]", "melting point": "127 to 130"}
{"smiles": "Cl.Cl.Nc1ncc2c(n1)CCC(NC(=O)[C@@H]1CCCN1C(=O)[C@H](N)C(c1ccccc1)c1ccccc1)C2", "note": "(stereo partly shown)", "melting point": "199 to 202"}
{"smiles": "Cl.Cl.N[C@@H](C(=O)N1CCC[C@H]1C(=O)NC1CCc2n[nH]cc2C1)C(c1ccccc1)c1ccccc1", "note": "(stereo partly shown)", "melting point": "190 to 193"}
{"smiles": "Nc1nc2c(s1)CC(NC(=O)[C@@H]1CCCN1C(=O)[C@@H](CC1CCCCC1)NS(=O)(=O)Cc1ccccc1)CC2", "note": "(stereo partly drawn) [Example 28, (2S)-N-(2-Amino-4,5,6,7-tetrahydro-1,3-benzothiazol-6-yl)-1-{(2R)-2-[(benzylsulfonyl)amino]-3-cyclohexylpropanoyl}-2-pyrrolidinecarboxamide]", "melting point": "127 to 130"}
{"smiles": "Nc1ncnc2ccc(NC(=O)[C@@H]3CCCN3C(=O)CNC(c3ccccc3)(c3ccccc3)c3ccccc3)cc12", "note": "[Example 42, (2S)-N-(4-amino-6-quinazolinyl)-1-{2-[(triphenylmethyl)amino]acetyl}-2-pyrrolidinecarboxamide]", "melting point": "> 250"}
{"smiles": "CC(C)(C)OC(=O)N[C@H](Cc1ccc(Cl)c(Cl)c1)C(=O)N1CCC[C@H]1C(=O)NC1CCc2nc(N)sc2C1", "note": "(stereo partly drawn) [Example 34, tert-Butyl (1R)-2-((2S)-2-{[(2-amino-4,5,6,7-tetrahydro-1,3-benzothiazol-6-yl)amino]carbonyl}pyrrolidinyl)-1-(3,4-dichlorobenzyl)-2-oxoethylcarbamate]", "melting point": "116 to 119"}
{"smiles": "Nc1nc2c(s1)CC(NC(=O)[C@@H]1CCCN1C(=O)[C@@H](Cc1ccccc1)NS(=O)(=O)c1ccc3ccccc3c1)CC2", "note": "(stereo partly drawn) [Example 30, (2S)-N-(2-Amino-4,5,6,7-tetrahydro-1,3-benzothiazol-6-yl)-1-{(2R)-2-[(2-naphthylsulfonyl)amino]-3-phenylpropanoyl}-2-pyrrolidinecarboxamide]", "melting point": "128 to 131"}
{"smiles": "Nc1ncc2c(n1)CCC(CNC(=O)[C@@H]1CCCN1C(=O)[C@@H](Cc1ccccc1)NS(=O)(=O)Cc1ccccc1)C2", "note": "(stereo partly drawn) [Example 12, (2S)-N-[(2-Amino-5,6,7,8-tetrahydro-6-quinazolinyl)methyl]-1-{(2R)-2-[(benzylsulfonyl)amino]-3-phenylpropanoyl}-2-pyrrolidinecarboxamide]", "melting point": "118 to 121"}
{"smiles": "CC(C)(C)OC(=O)N[C@H](Cc1ccc(Cl)c(Cl)c1)C(=O)N1CCC[C@H]1C(=O)NC1CCc2n[nH]cc2C1", "note": "(stereo partly drawn) [Example 16, tert-Butyl (1R)-1-(3,4dichlorobenzyl)-2-oxo-2-{(2S)-2-[(4,5,6,7-tetrahydro-2H-indazol-5-ylamino)carbonyl]pyrrolidinyl}ethylcarbamate]", "melting point": "116 to 119"}
{"smiles": "Cl.N[C@H](Cc1ccc(Cl)c(Cl)c1)C(=O)N1CCC[C@H]1C(=O)NCC1CCc2n[nH]cc2C1", "note": "(stereo partly shown)", "melting point": "145 to 148"}
{"smiles": "CC(C)(C)OC(=O)N[C@@H](C(=O)N1CCC[C@H]1C(=O)NCC1CCc2n[nH]cc2C1)C(c1ccccc1)c1ccccc1", "note": "(stereo partly drawn) [Example 64, tert-Butyl (1R)-1-benzhydryl-2-oxo-2-((2S)-2-{[(4,5,6,7-tetrahydro-2H-indazol-5-ylmethyl)amino]carbonyl}pyrrolidinyl)ethylcarbamate]", "melting point": "113 to 116"}
{"smiles": "CC(C)(C)OC(=O)N[C@H](Cc1ccc(Cl)c(Cl)c1)C(=O)N1CCC[C@H]1C(=O)NC1CCc2nc(N)ncc2C1", "note": "(stereo partly drawn) [Example 14, tert-Butyl (1R)-2-((2S)-2-{[(2-amino-5,6,7,8-tetrahydro-6-quinazolinyl)amino]carbonyl}pyrrolidinyl)-1-(3,4-dichlorobenzyl)-2-oxoethylcarbamate]", "melting point": "114 to 117"}
{"smiles": "Nc1ncc2c(n1)CCC(NC(=O)[C@@H]1CCCN1C(=O)[C@@H](CC1CCCCC1)NS(=O)(=O)Cc1ccccc1)C2", "note": "(stereo partly drawn) [Example 21, (2S)-N-(2-Amino-5,6,7,8-tetrahydro-6-quinazolinyl)-1-{(2R)-2-[(benzylsulfonyl)amino]-3-cyclohexylpropanoyl}-2-pyrrolidinecarboxamide]", "melting point": "114 to 117"}
{"smiles": "Nc1nc2c(s1)CC(NC(=O)[C@@H]1CCCN1C(=O)CNC(c1ccccc1)(c1ccccc1)c1ccccc1)CC2", "note": "(stereo partly drawn) [Example 33, (2S)-N-(2-Amino-4,5,6,7-tetrahydro-1,3-benzothiazol-6-yl)-1-[2-(tritylamino)acetyl]-2-pyrrolidinecarboxamide]", "melting point": "125 to 128"}
{"smiles": "O=C(NC1CCc2c[nH]cc2C1)[C@@H]1CCCN1C(=O)[C@@H](CC1CCCCC1)NS(=O)(=O)Cc1ccccc1", "note": "(stereo partly drawn) [Example 63, (2S)-1-{(2R)-2-[(Benzylsulfonyl)amino]-3-cyclohexylpropanoyl}-N-(4,5,6,7-tetrahydro-2H-isoindol-5-yl)-2-pyrrolidinecarboxamide]", "melting point": "106 to 109"}
{"smiles": "Nc1nc2ccc(NC(=O)CNC(=O)[C@@H](Cc3ccccc3)NS(=O)(=O)Cc3ccccc3)cc2s1", "note": "[Example 39, (2R)-N-{2-[(2-Amino-1,3-benzothiazol-6-yl)amino]-2-oxoethyl}-2-[(benzylsulfonyl)amino]-3-phenylpropanamide]", "melting point": "127 to 130"}
{"smiles": "Cl.Cl.N[C@H](Cc1ccc(Cl)c(Cl)c1)C(=O)N1CCC[C@H]1C(=O)NC1CCc2n[nH]cc2C1", "note": "(stereo partly shown)", "melting point": "199 to 202"}
{"smiles": "Nc1nc2c(s1)CC(NC(=O)[C@@H]1CCCN1C(=O)[C@@H](Cc1ccccc1)NS(=O)(=O)Cc1ccccc1)CC2", "note": "(stereo partly drawn) [Example 27, (2S)-N-(2-amino-4,5,6,7-tetrahydro-1,3-benzothiazol-6-yl)-1-{(2R)-2-[(benzylsulfonyl)amino]-3-phenylpropanoyl}-2-pyrrolidinecarboxamide]", "melting point": "126 to 129"}
{"smiles": "Nc1nc2ccc(NC(=O)[C@@H]3CCCN3C(=O)[C@@H](Cc3ccccc3)NS(=O)(=O)Cc3ccccc3)cc2s1", "note": "[Example 38, (2S)-N-(2-Amino-1,3-benzothiazol-6-yl)-1-{(2R)-2-[(benzylsulfonyl)amino]-3-phenylpropanoyl}-2-pyrrolidinecarboxamide]", "melting point": "130 to 133"}
{"smiles": "Nc1nc2c(s1)CC(CNC(=O)[C@@H]1CCCN1C(=O)[C@@H](CC1CCCCC1)NS(=O)(=O)Cc1ccccc1)CC2", "note": "(stereo partly drawn) [Example 69, (2S)-N-[(2-Amino-4,5,6,7-tetrahydro-1,3-benzothiazol-6-yl)methyl]-1-{(2R)-2-[(benzylsulfonyl)amino]-3-cyclohexylpropanoyl}-2-pyrrolidinecarboxamide]", "melting point": "203 to 205"}
{"smiles": "Cl.Cl.Nc1nc2c(s1)CC(NC(=O)[C@@H]1CCCN1C(=O)[C@H](N)Cc1ccc(Cl)c(Cl)c1)CC2", "note": "(stereo partly shown)", "melting point": "166 to 169"}
{"smiles": "CC(C)(C)OC(=O)N[C@@H](C(=O)N1CCC[C@H]1C(=O)NC1CCc2nc(N)ncc2C1)C(c1ccccc1)c1ccccc1", "note": "(stereo partly drawn) [Example 23, tert-Butyl (1R)-2-((2S)-2-{[(2-amino-5,6,7,8-tetrahydro-6-quinazolinyl)amino]carbonyl}pyrrolidinyl)-1-benzhydryl-2-oxoethylcarbamate]", "melting point": "128 to 131"}
{"smiles": "CC(C)(C)OC(=O)N[C@@H](C(=O)N1CCC[C@H]1C(=O)NCC1CCc2nc(N)ncc2C1)C(c1ccccc1)c1ccccc1", "note": "(stereo partly drawn) [Example 67, tert-Butyl (1R)-2-[(2S)-2-({[(2-amino-5,6,7,8-tetrahydro-6-quinazolinyl)methyl]amino}carbonyl)pyrrolidinyl]-1-benzhydryl-2-oxoethylcarbamate]", "melting point": "127 to 130"}
{"smiles": "Cl.Cl.Nc1ncc2c(n1)CCC(NC(=O)[C@@H]1CCCN1C(=O)[C@H](N)Cc1ccc(Cl)c(Cl)c1)C2", "note": "(stereo partly shown)", "melting point": "201 to 204"}
